Results as given in ChEMBL document CHEMBL1201862, “PubChem BioAssay data set” (2004).
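In this assay, cells in 96-well plates receive the compound at five concentrations for 48 hours. Endpoints are linearly interpolated between the surrounding concentrations. Here, GI50 denotes the concentration required for 50% inhibition of growth.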 Active and inactive are the calls of the source. Rule as the data show it: active = GI50 up to about 1.1 µM and inactive = higher.

Assays:
Assay in all cases: NCI anticancer screen, dose series, 48 h
OVCAR-3 = system: OVCAR-3
KM12 = system: KM12
ACHN = system: ACHN
U-251 = system: U-251
HCC 2998 = system: HCC 2998
SF-539 = system: SF-539
UACC-257 = system: UACC-257
786-0 = system: 786-0
SNB-19 = system: SNB-19
LOX IMVI = system: LOX IMVI
MOLT-4 = system: MOLT-4
HOP-92 = system: HOP-92
SK-OV-3 = system: SK-OV-3
K562 = system: K562
A498 = system: A498
UACC-62 = system: UACC-62
NCI-H522 = system: NCI-H522

Measured: GI50

O=c1[nH]nc2ccccc2c1Cc1ccccc1
inactive: OVCAR-3 > 100 µM | KM12 > 100 µM | ACHN > 100 µM | U-251 > 100 µM | HCC 2998 59.3 µM | SF-539 > 100 µM | UACC-257 > 100 µM | 786-0 > 100 µM | SNB-19 > 100 µM | LOX IMVI > 100 µM | MOLT-4 > 100 µM | HOP-92 > 100 µM | SK-OV-3 > 100 µM | K562 > 100 µM | A498 > 100 µM | UACC-62 > 100 µM

CCN(N=O)C1C2(CCCC2)NC(=O)C12CCCC2 (stereo not drawn)
inactive: OVCAR-3 > 100 µM | KM12 > 100 µM | ACHN > 100 µM | U-251 > 100 µM | HCC 2998 > 100 µM | SF-539 > 100 µM | UACC-257 > 100 µM | 786-0 > 100 µM | SNB-19 > 100 µM | LOX IMVI > 100 µM | MOLT-4 > 100 µM | SK-OV-3 > 100 µM | K562 > 100 µM | A498 > 100 µM | UACC-62 > 100 µM

CCOC(=O)c1nc2ccc(Cl)cc2c2c1CCO2
inactive: OVCAR-3 > 100 µM | KM12 > 100 µM | ACHN 55 µM | U-251 74.6 µM | HCC 2998 > 100 µM | SF-539 95.1 µM | UACC-257 > 100 µM | 786-0 > 100 µM | SNB-19 > 100 µM | NCI-H522 34.7 µM | LOX IMVI 59.6 µM | MOLT-4 53.5 µM | SK-OV-3 76 µM | K562 91.2 µM | A498 31 µM | UACC-62 87.7 µM

CC(C)C1CCC/C=C/C=C/C=C/C=C/C(OC2OC(C)C(O)C(N)C2O)CC2OC(O)(CC(O)CC(O)C(O)CCC(=O)O1)CC(O)C2C(=O)O (stereo not drawn)
inactive: OVCAR-3 > 52.5 µM | ACHN > 52.5 µM | U-251 > 52.5 µM | SF-539 > 52.5 µM | 786-0 > 52.5 µM | SNB-19 > 52.5 µM | NCI-H522 > 52.5 µM | MOLT-4 > 52.5 µM | HOP-92 > 52.5 µM | SK-OV-3 > 52.5 µM | K562 > 52.5 µM | A498 > 52.5 µM | UACC-62 > 52.5 µM

C=CNC(=O)NC(=O)CSc1nc(=O)c(-c2ccccc2NC(=O)C(F)(F)F)n[nH]1
inactive: OVCAR-3 38.3 µM | KM12 > 100 µM | U-251 23.7 µM | HCC 2998 > 100 µM | SF-539 74.6 µM | 786-0 51.2 µM | SNB-19 32.2 µM | NCI-H522 51.6 µM | LOX IMVI > 100 µM | MOLT-4 > 100 µM | HOP-92 21.6 µM | SK-OV-3 47.6 µM | K562 > 100 µM | UACC-62 > 100 µM

Cc1c2n(c(=O)[nH]c1=O)C1OC(CO)C(O2)C1O (stereo not drawn)
inactive: OVCAR-3 > 100 µM | KM12 > 100 µM | ACHN > 100 µM | U-251 > 100 µM | SF-539 > 100 µM | UACC-257 > 100 µM | 786-0 > 100 µM | SNB-19 > 100 µM | NCI-H522 > 100 µM | LOX IMVI > 100 µM | MOLT-4 > 100 µM | HOP-92 > 100 µM | SK-OV-3 > 100 µM | K562 > 100 µM | A498 23 µM | UACC-62 > 100 µM

O=C(c1ccc(Cl)cc1)N(C(=S)N1CCN(c2ccccn2)CC1)C1CCCCC1
inactive: OVCAR-3 45.9 µM | KM12 68.1 µM | ACHN 43.6 µM | U-251 37.2 µM | SF-539 61.7 µM | UACC-257 30.8 µM | 786-0 36.4 µM | SNB-19 96.4 µM | NCI-H522 38.6 µM | LOX IMVI 56.1 µM | MOLT-4 24.3 µM | HOP-92 > 100 µM | SK-OV-3 > 100 µM | K562 37.6 µM | UACC-62 > 100 µM

CCc1c(Cc2[nH]c(Cc3[nH]c(C=O)c(C)c3CC)c(CC)c2CC)[nH]c(C=O)c1C
inactive: OVCAR-3 > 100 µM | KM12 > 10 µM | ACHN > 100 µM | U-251 > 100 µM | HCC 2998 > 100 µM | SF-539 > 100 µM | 786-0 > 100 µM | SNB-19 > 100 µM | NCI-H522 > 100 µM | LOX IMVI > 100 µM | MOLT-4 > 100 µM | SK-OV-3 > 100 µM | K562 > 100 µM | UACC-62 > 100 µM

O=C(O)c1ccccc1/N=N/c1ccc2oc(=O)c(C(=O)Nc3ccccc3)cc2c1
inactive: OVCAR-3 20.4 µM | KM12 31.8 µM | ACHN 50.2 µM | U-251 42.4 µM | SF-539 31.3 µM | UACC-257 24.6 µM | 786-0 70.8 µM | SNB-19 32.3 µM | NCI-H522 34.8 µM | LOX IMVI 35.9 µM | MOLT-4 32.8 µM | SK-OV-3 52.8 µM | K562 39.6 µM | UACC-62 22.9 µM

C[S+](C)CCOC(=O)C(=[N+]=[N-])c1ccc([N+](=O)[O-])cc1
inactive: OVCAR-3 > 100 µM | KM12 > 100 µM | ACHN > 100 µM | U-251 > 100 µM | HCC 2998 > 100 µM | SF-539 > 100 µM | UACC-257 > 100 µM | 786-0 > 100 µM | SNB-19 > 100 µM | NCI-H522 > 100 µM | MOLT-4 > 100 µM | SK-OV-3 > 100 µM | K562 > 100 µM | A498 > 100 µM | UACC-62 > 100 µM

COC1(OC)C(N(C)C)=C(Cl)C(=O)/C1=C/C=O
inactive: OVCAR-3 60.1 µM | ACHN 92 µM | U-251 > 100 µM | HCC 2998 > 100 µM | UACC-257 83.8 µM | 786-0 > 100 µM | SNB-19 > 100 µM | LOX IMVI 84.7 µM | MOLT-4 > 100 µM | HOP-92 47 µM | SK-OV-3 > 100 µM | K562 33.1 µM | A498 > 100 µM | UACC-62 40 µM

COC1OC(C)C(O)CC1OS(=O)(=O)c1ccc(C)cc1 (stereo not drawn)
inactive: OVCAR-3 > 100 µM | KM12 > 100 µM | ACHN > 100 µM | U-251 > 100 µM | SF-539 > 100 µM | UACC-257 > 100 µM | 786-0 > 100 µM | SNB-19 > 100 µM | NCI-H522 > 100 µM | LOX IMVI > 100 µM | MOLT-4 > 100 µM | HOP-92 > 100 µM | SK-OV-3 > 100 µM | K562 > 100 µM | A498 > 100 µM | UACC-62 > 100 µM

Nc1ccn(C2(CO)C=C(CO)C(O)C2O)c(=O)n1 (stereo not drawn)
inactive: OVCAR-3 > 25.8 µM | KM12 > 25.8 µM | ACHN > 25.8 µM | U-251 > 25.8 µM | HCC 2998 > 25.8 µM | SF-539 > 25.8 µM | UACC-257 > 25.8 µM | 786-0 > 25.8 µM | SNB-19 > 25.8 µM | NCI-H522 > 25.8 µM | MOLT-4 > 25.8 µM | SK-OV-3 > 25.8 µM | K562 > 25.8 µM | A498 > 25.8 µM | UACC-62 > 25.8 µM
